Measured values reported in PubChem BioAssay (NCI).
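Method: 48-hour compound exposure of cells in 96-well plates, five concentrations, linear interpolation of endpoints. TGI is the concentration that stops growth completely.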

Experiments:
Experiment in all cases: inhibition of tumour cell growth, NCI panel, 48 h
KM12 colon = test system: KM12 colon
SK-MEL-28 melanoma = test system: SK-MEL-28 melanoma
UO-31 renal = test system: UO-31 renal
LXFL 529 NSCLC = test system: LXFL 529 NSCLC
OVCAR-3 ovarian = test system: OVCAR-3 ovarian
HOP-92 NSCLC = test system: HOP-92 NSCLC
SK-MEL-2 melanoma = test system: SK-MEL-2 melanoma
A498 renal = test system: A498 renal
HOP-62 NSCLC = test system: HOP-62 NSCLC
OVCAR-5 ovarian = test system: OVCAR-5 ovarian
SNB-19 CNS = test system: SNB-19 CNS
RPMI-8226 leukemia = test system: RPMI-8226 leukemia
SN12C renal = test system: SN12C renal
SR leukemia = test system: SR leukemia
COLO 205 colon = test system: COLO 205 colon
SNB-75 CNS = test system: SNB-75 CNS
HCT-116 colon = test system: HCT-116 colon
OVCAR-8 ovarian = test system: OVCAR-8 ovarian
HL-60(TB) leukemia = test system: HL-60(TB) leukemia
KM20L2 colon = test system: KM20L2 colon
SF-268 CNS = test system: SF-268 CNS
DMS 114 small cell lung = test system: DMS 114 small cell lung
HCC-2998 colon = test system: HCC-2998 colon
NCI-H23 lung = test system: NCI-H23 lung
UACC-62 melanoma = test system: UACC-62 melanoma
CCRF-CEM leukemia = test system: CCRF-CEM leukemia
DLD-1 colon = test system: DLD-1 colon
SF-539 CNS = test system: SF-539 CNS
HOP-18 NSCLC = test system: HOP-18 NSCLC
M19-MEL melanoma = test system: M19-MEL melanoma
SK-MEL-5 melanoma = test system: SK-MEL-5 melanoma
TK-10 renal = test system: TK-10 renal
NCI-H460 lung = test system: NCI-H460 lung
XF 498 CNS = test system: XF 498 CNS
SNB-78 CNS = test system: SNB-78 CNS
OVCAR-4 ovarian = test system: OVCAR-4 ovarian
CAKI-1 renal = test system: CAKI-1 renal
EKVX NSCLC = test system: EKVX NSCLC
SK-OV-3 ovarian = test system: SK-OV-3 ovarian
M14 melanoma = test system: M14 melanoma
RXF 393 renal = test system: RXF 393 renal
U251 CNS = test system: U251 CNS
IGROV1 ovarian = test system: IGROV1 ovarian
K-562 leukemia = test system: K-562 leukemia
SW-620 colon = test system: SW-620 colon
SF-295 CNS = test system: SF-295 CNS
NCI-H522 lung = test system: NCI-H522 lung
ACHN renal = test system: ACHN renal
A549 NSCLC = test system: A549 NSCLC
UACC-257 melanoma = test system: UACC-257 melanoma
MOLT-4 leukemia = test system: MOLT-4 leukemia
DMS 273 small cell lung = test system: DMS 273 small cell lung
NCI-H226 lung = test system: NCI-H226 lung
HCT-15 colon = test system: HCT-15 colon
LOX IMVI melanoma = test system: LOX IMVI melanoma
HT29 colon = test system: HT29 colon
786-0 renal = test system: 786-0 renal
MALME-3M melanoma = test system: MALME-3M melanoma

## N#CNC(=NCc1ccccc1)NCc1ccccc1
KM12 colon
  TGI: > 100 µM
SK-MEL-28 melanoma
  TGI: > 100 µM
UO-31 renal
  TGI: > 100 µM
LXFL 529 NSCLC
  TGI: > 100 µM
OVCAR-3 ovarian
  TGI: > 100 µM
HOP-92 NSCLC
  TGI: > 100 µM
SK-MEL-2 melanoma
  TGI: > 100 µM
A498 renal
  TGI: > 100 µM
HOP-62 NSCLC
  TGI: > 100 µM
OVCAR-5 ovarian
  TGI: > 100 µM
SNB-19 CNS
  TGI: > 100 µM
RPMI-8226 leukemia
  TGI: > 100 µM
SN12C renal
  TGI: > 100 µM
SR leukemia
  TGI: 69 µM
COLO 205 colon
  TGI: > 57.3 µM
SNB-75 CNS
  TGI: > 100 µM
HCT-116 colon
  TGI: 33.6 µM
OVCAR-8 ovarian
  TGI: > 100 µM
HL-60(TB) leukemia
  TGI: > 100 µM
KM20L2 colon
  TGI: > 100 µM
SF-268 CNS
  TGI: 48.6 µM
DMS 114 small cell lung
  TGI: > 53.4 µM
HCC-2998 colon
  TGI: > 100 µM
NCI-H23 lung
  TGI: > 100 µM
UACC-62 melanoma
  TGI: > 100 µM
CCRF-CEM leukemia
  TGI: > 100 µM
DLD-1 colon
  TGI: > 71 µM
SF-539 CNS
  TGI: > 100 µM
HOP-18 NSCLC
  TGI: > 100 µM
M19-MEL melanoma
  TGI: > 96.3 µM
SK-MEL-5 melanoma
  TGI: > 100 µM
TK-10 renal
  TGI: > 100 µM
NCI-H460 lung
  TGI: > 100 µM
XF 498 CNS
  TGI: > 100 µM
SNB-78 CNS
  TGI: > 100 µM
OVCAR-4 ovarian
  TGI: > 100 µM
CAKI-1 renal
  TGI: > 100 µM
EKVX NSCLC
  TGI: > 100 µM
SK-OV-3 ovarian
  TGI: > 100 µM
M14 melanoma
  TGI: > 100 µM
RXF 393 renal
  TGI: > 89 µM
U251 CNS
  TGI: > 70.7 µM
IGROV1 ovarian
  TGI: > 100 µM
K-562 leukemia
  TGI: > 100 µM
SW-620 colon
  TGI: > 62.7 µM
SF-295 CNS
  TGI: > 100 µM
NCI-H522 lung
  TGI: > 100 µM
ACHN renal
  TGI: > 100 µM
A549 NSCLC
  TGI: > 100 µM
UACC-257 melanoma
  TGI: > 100 µM
MOLT-4 leukemia
  TGI: > 100 µM
DMS 273 small cell lung
  TGI: > 56 µM
NCI-H226 lung
  TGI: > 100 µM
HCT-15 colon
  TGI: > 55.8 µM
LOX IMVI melanoma
  TGI: > 100 µM
HT29 colon
  TGI: > 100 µM
786-0 renal
  TGI: > 100 µM
MALME-3M melanoma
  TGI: > 100 µM

## Cc1ccc(S(=O)(=O)NC2CCCCO2)cc1 (stereo unspecified)
KM12 colon
  TGI: > 100 µM
SK-MEL-28 melanoma
  TGI: > 100 µM
UO-31 renal
  TGI: > 100 µM
LXFL 529 NSCLC
  TGI: > 100 µM
OVCAR-3 ovarian
  TGI: > 100 µM
HOP-92 NSCLC
  TGI: > 100 µM
A498 renal
  TGI: > 100 µM
HOP-62 NSCLC
  TGI: > 100 µM
OVCAR-5 ovarian
  TGI: > 100 µM
SNB-19 CNS
  TGI: > 100 µM
RPMI-8226 leukemia
  TGI: > 100 µM
SN12C renal
  TGI: > 100 µM
COLO 205 colon
  TGI: > 100 µM
SNB-75 CNS
  TGI: > 100 µM
HCT-116 colon
  TGI: > 100 µM
OVCAR-8 ovarian
  TGI: > 100 µM
KM20L2 colon
  TGI: > 100 µM
SF-268 CNS
  TGI: > 100 µM
DMS 114 small cell lung
  TGI: > 100 µM
HCC-2998 colon
  TGI: > 100 µM
NCI-H23 lung
  TGI: > 100 µM
UACC-62 melanoma
  TGI: > 100 µM
CCRF-CEM leukemia
  TGI: > 100 µM
DLD-1 colon
  TGI: > 100 µM
SF-539 CNS
  TGI: > 100 µM
HOP-18 NSCLC
  TGI: > 100 µM
M19-MEL melanoma
  TGI: > 100 µM
SK-MEL-5 melanoma
  TGI: > 100 µM
NCI-H460 lung
  TGI: > 100 µM
XF 498 CNS
  TGI: > 100 µM
SNB-78 CNS
  TGI: > 100 µM
OVCAR-4 ovarian
  TGI: > 100 µM
CAKI-1 renal
  TGI: > 100 µM
EKVX NSCLC
  TGI: > 100 µM
SK-OV-3 ovarian
  TGI: > 100 µM
M14 melanoma
  TGI: > 100 µM
RXF 393 renal
  TGI: > 100 µM
U251 CNS
  TGI: > 100 µM
IGROV1 ovarian
  TGI: > 100 µM
K-562 leukemia
  TGI: > 100 µM
SW-620 colon
  TGI: > 100 µM
NCI-H522 lung
  TGI: > 100 µM
ACHN renal
  TGI: > 100 µM
A549 NSCLC
  TGI: > 100 µM
UACC-257 melanoma
  TGI: > 100 µM
MOLT-4 leukemia
  TGI: > 100 µM
DMS 273 small cell lung
  TGI: > 100 µM
NCI-H226 lung
  TGI: > 100 µM
HCT-15 colon
  TGI: > 100 µM
LOX IMVI melanoma
  TGI: > 100 µM
HT29 colon
  TGI: > 100 µM
786-0 renal
  TGI: > 100 µM
MALME-3M melanoma
  TGI: > 100 µM
